Test results as given in patent US20120010115A1, “PRESERVATIVE SYSTEM AND COMPOSITION BASED ON GLYCINATE AND DIHYDROXYPROPYL QUATERNARY AMMONIUM SALT COMBINATION” (CONOPCO, INC., D/B/A UNILEVER, priority 2010, published 2012).

Test system: Pseudomonas aeruginosa ATCC 9027
Experiment: Challenge Test for the Evaluation of Preservative Capacity of Liquid Detergent and Personal Products
Type: cell-based
Conditions: aqueous formula, each active 5%, pH 7.6, inoculum 1.06E+07 (Log 7)
Experimental: Experiments were conducted to evaluate antimicrobial activity against Pseudomonas aeruginosa of aqueous formulas containing 2,3-dihydroxypropyl trimethyl ammonium chloride (Glyceryl Quat), sodium cocoyl glycinate and combinations of these two materials. Samples were prepared at room temperature by mixing together sodium cocoyl glycinate and/or Glyceryl Quat and water. The pH was adjusted by addition of aqueous hydrochloric acid to reach a 7.6 value. Amounts of each of the active components was 5%. Test Method: Challenge Test for the Evaluation of Preservative Capacity of Liquid Detergent and Personal Products Test Microorganism: Pseudomonas aeruginosa ATCC 9027 obtained from American Type Culture Collection, Manassas, Va. 20108. Procedure: 20 grams of product were inoculated with 0.2 ml of the microorganism at a level of 1.06E+07 or Log 7. A single inoculation was performed. At 2 day, 7 day, 14 day and 21 day time points after inoculation a 1 gram sample was aseptically removed into a neutralizing fluid (TAT Broth) and plated using Letheen Agar. The plates were incubated at 30° C. for 7 days. At the end of the incubation time the plates were removed and examined for microbial growth. Calculation of Log Reduction: The microorganisms recovered were converted into Log10 and compared to initial inoculum count which then determined the Log Reduction. Logarithmic functions are the inverse of exponential functions. Log reduction was determined by the initial inoculum count minus the counts at each sampling time point.

| Compound | Log Reduction Value (2 day after inoculation) | Log Reduction Value (7 day after inoculation) | Log Reduction Value (14 day after inoculation) | Log Reduction Value (21 day after inoculation) |
| --- | --- | --- | --- | --- |
| C[N+](C)(C)CC(O)CO.[Cl-] (centres unmarked) [Glyceryl Quat, 2,3-dihydroxypropyl trimethyl ammonium chloride] | 2.1 | 1.5 | 2.8 | 3.4 |
| sodium cocoyl glycinate | 1.1 | 1.1 | 0.8 | 0.2 |
